From patent publication US11214594B2, “Antimicrobial peptide having synergistic antibacterial effect with antibiotics on multidrug resistant bacteria, and use thereof” (priority 2016, dated 2022)
Read-outs that look alike come from different tables or passages of the source. Where a SMILES comes first, the peptide text is derived from it.

Experiments:
A. baumannii [1] = test: MIC of antibiotic during combined treatment with antimicrobial peptide; assay type: cell-based, Acinetobacter baumannii; conditions: A. baumannii
Summary of the method: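 MIC values for mixed peptide plus antibiotic solutions were measured in MH medium.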

E. coli = assay type: cell-based, Escherichia coli; conditions: E. coli
Summary of the method: (§1)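 Antibiotic MIC came from antibiotic dilutions added to bacteria (2×10^6 CFU/ml, MH medium) already combined with peptide serially diluted 2:1 from its own MIC. Swapping the roles of the two agents gave the peptide MIC.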

MDREC 1229 = assay type: cell-based, Escherichia coli
Summary of the method: as §1

A. baumannii [2] = test: MIC of antimicrobial peptide during combined treatment with antibiotic; assay type: cell-based, Acinetobacter baumannii
Summary of the method: as §1

MDRAB 12035 = test: as above; assay type: cell-based, Acinetobacter baumannii
Summary of the method: as §1

[3] = combined with peptide at 2 μg/ml
[4] = combined with peptide at 4 μg/ml
[5] = combined with peptide at 6 μg/ml
[6] = combined with peptide at 8 μg/ml
[7] = combined with peptide at 16 μg/ml
[8] = combined with peptide at 32 μg/ml
[9] = combined with peptide at 64 μg/ml
[10] = linezolid 64 μg/ml (Conc./MIC 1/8)
[11] = linezolid 512 μg/ml (Conc./MIC 1)
[12] = vancomycin 512 μg/ml (Conc./MIC 1/2)
[13] = vancomycin 1024 μg/ml (Conc./MIC 1)
[14] = erythromycin 4 μg/ml (Conc./MIC 1/8)
[15] = erythromycin 8 μg/ml (Conc./MIC 1/4)
[16] = erythromycin 16 μg/ml (Conc./MIC 1/2)
[17] = erythromycin 32 μg/ml (Conc./MIC 1)

CC[C@H](C)[C@H](NC(=O)[C@H](CCCCN)NC(=O)[C@H](Cc1c[nH]c2ccccc12)NC(=O)[C@@H](N)CCCNC(=N)N)C(=O)N[C@@H](Cc1ccccc1)C(=O)N[C@@H](CCCCN)C(=O)N[C@@H](CCCCN)C(=O)N[C@H](C(=O)N1CCC[C@H]1C(=O)N[C@@H](CCCCN)C(=O)N[C@@H](CC(C)C)C(=O)N[C@@H](CC(C)C)C(=O)N[C@@H](Cc1c[nH]cn1)C(=O)N[C@@H](CCC(=O)O)C(=O)N[C@@H](C)C(=O)N[C@@H](CCCCN)C(=O)N[C@@H](CCCCN)C(=O)N[C@@H](Cc1c[nH]c2ccccc12)C(N)=O)[C@@H](C)CC [PapMA-13, RWK IFK KIP KLL HEA KKW-NH2] (H-RWKIFKKIPKLLHEAKKW-NH2; N-terminus assumed)
8 µg/mL: Antibiotic MIC, Erythromycin (A. baumannii [1]; [3]) | Peptide MIC during treatment with antibiotic (MDREC 1229; vancomycin […] (Conc./MIC 1/8))
4 µg/mL: Antibiotic MIC, Linezolid (A. baumannii [1]; [4]) | Antibiotic MIC, Vancomycin (A. baumannii [1]; [4]) | Peptide MIC during treatment with antibiotic (MDREC 1229; [10]) | Peptide MIC during treatment with antibiotic (MDREC 1229; vancomycin […] (Conc./MIC 1/4)) | Peptide MIC during treatment with antibiotic (A. baumannii [2]; [14]) | Peptide MIC during treatment with erythromycin (MDRAB 12035; [14])
0.5 µg/mL: Antibiotic MIC, Erythromycin (A. baumannii [1]; [5]) | Antibiotic MIC, Vancomycin (A. baumannii [1]; [6])
1 µg/mL: Antibiotic MIC, Erythromycin (A. baumannii [1]; [4]) | Antibiotic MIC, Vancomycin (A. baumannii [1]; [5]) | Antibiotic MIC, Linezolid (A. baumannii [1]; [6]) | Peptide MIC during treatment with antibiotic (MDREC 1229; [13]) | Peptide MIC during treatment with antibiotic (A. baumannii [2]; [16]) | Peptide MIC during treatment with antibiotic (A. baumannii [2]; linezolid […] (Conc./MIC 1/2)) | Peptide MIC during treatment with antibiotic (A. baumannii [2]; vancomycin […] (Conc./MIC 1/8)) | Peptide MIC during treatment with erythromycin (MDRAB 12035; [16]) | Peptide MIC during treatment with linezolid (MDRAB 12035; linezolid […] (Conc./MIC 1/2)) | Peptide MIC during treatment with linezolid (MDRAB 12035; linezolid […] (Conc./MIC 1/4)) | Peptide MIC during treatment with vancomycin (MDRAB 12035; [12]) | Peptide MIC during treatment with vancomycin (MDRAB 12035; [13]) | Peptide MIC during treatment with vancomycin (MDRAB 12035; vancomycin […] (Conc./MIC 1/4))
0.25 µg/mL: Peptide MIC during treatment with antibiotic (A. baumannii [2]; [12]) | Peptide MIC during treatment with antibiotic (A. baumannii [2]; vancomycin […] (Conc./MIC 1/4))
0.125 µg/mL: Antibiotic MIC, Erythromycin (A. baumannii [1]; [6])
0 µg/mL: Antibiotic MIC, Erythromycin (A. baumannii [1]; [7]) | Antibiotic MIC, Linezolid (A. baumannii [1]; [7]) | Antibiotic MIC, Vancomycin (A. baumannii [1]; [7]) | Antibiotic MIC, Erythromycin (A. baumannii [1]; [8]) | Antibiotic MIC, Linezolid (A. baumannii [1]; [8]) | Antibiotic MIC, Vancomycin (A. baumannii [1]; [8]) | Antibiotic MIC, Erythromycin (A. baumannii [1]; [9]) | Antibiotic MIC, Linezolid (A. baumannii [1]; [9]) | Antibiotic MIC, Vancomycin (A. baumannii [1]; [9]) | Peptide MIC (E. coli; with Erythromycin […] (Conc./MIC 1)) | Peptide MIC (E. coli; with Linezolid […] (Conc./MIC 1)) | Peptide MIC (E. coli; with Vancomycin 1024 μg/ml (Conc./MIC 1)) | Peptide MIC during treatment with antibiotic (MDREC 1229; erythromycin […] (Conc./MIC 1)) | Peptide MIC during treatment with antibiotic (MDREC 1229; [11]) | Peptide MIC during treatment with antibiotic (A. baumannii [2]; [17]) | Peptide MIC during treatment with antibiotic (A. baumannii [2]; linezolid […] (Conc./MIC 1)) | Peptide MIC during treatment with antibiotic (A. baumannii [2]; [13]) | Peptide MIC during treatment with erythromycin (MDRAB 12035; [17]) | Peptide MIC during treatment with linezolid (MDRAB 12035; [11])
2 µg/mL: Antibiotic MIC, Linezolid (A. baumannii [1]; [5]) | Peptide MIC during treatment with antibiotic (MDREC 1229; erythromycin 32 μg/ml (Conc./MIC 1/8)) | Peptide MIC during treatment with antibiotic (MDREC 1229; erythromycin 64 μg/ml (Conc./MIC 1/4)) | Peptide MIC during treatment with antibiotic (MDREC 1229; erythromycin […] (Conc./MIC 1/2)) | Peptide MIC during treatment with antibiotic (MDREC 1229; linezolid […] (Conc./MIC 1/2)) | Peptide MIC during treatment with antibiotic (MDREC 1229; linezolid […] (Conc./MIC 1/4)) | Peptide MIC during treatment with antibiotic (MDREC 1229; [12]) | Peptide MIC during treatment with antibiotic (A. baumannii [2]; [15]) | Peptide MIC during treatment with antibiotic (A. baumannii [2]; linezolid 32 μg/ml (Conc./MIC 1/8)) | Peptide MIC during treatment with antibiotic (A. baumannii [2]; linezolid 64 μg/ml (Conc./MIC 1/4)) | Peptide MIC during treatment with erythromycin (MDRAB 12035; [15]) | Peptide MIC during treatment with linezolid (MDRAB 12035; [10]) | Peptide MIC during treatment with vancomycin (MDRAB 12035; vancomycin […] (Conc./MIC 1/8))
32 µg/mL: Antibiotic MIC, Linezolid (A. baumannii [1]; [3])
64 µg/mL: Antibiotic MIC, Vancomycin (A. baumannii [1]; [3])
